Where two headings read alike, the source gives them in different places.
Assays:
diabetic C57b1/6J mice = conditions: gavage; cited from earlier work
[1] = test system: colon cancer cells (HCT116); conditions: HCT116, among phenolic acids formed in TIM-2; cited from earlier work
[2] = TIM-1 gastrointestinal model bioaccessibility of maqui berry anthocyanins; assay type: in vitro ADME; conditions: for Total Bioaccessible Anthocyanin Amount: maqui berry extract in TIM-1, jejunal + ileal absorption over 4 h
[3] = first 4 h; cited from earlier work
[4] = maqui berry extract in TIM-1, over 4 h

Compound: COc1cc(-c2[o+]c3cc(O)cc(O)c3cc2O[C@@H]2O[C@H](CO)[C@@H](O)[C@H](O)[C@H]2O)cc(OC)c1O [malvidin-3-O-glucoside]
- Effect on blood glucose levels (diabetic C57b1/6J mice): significantly hypoglycemic

Compound: O=C(O)Cc1ccc(O)c(O)c1 [3,4-dihydroxyphenylacetic acid]
- Antiproliferative activity [1]: antiproliferative activity

Compound: OC[C@H]1O[C@@H](Oc2cc3c(O)cc(O)cc3[o+]c2-c2cc(O)c(O)c(O)c2)[C@H](O[C@@H]2OC[C@@H](O)[C@H](O)[C@H]2O)[C@@H](O)[C@@H]1O [Delphinidin-3-sambubioside]
- Total Bioaccessibility as % of intake [2]: 1.23 +/− 0.49 % of intake
- Recovery in Ileal Efflux as a % of Intake [2, 4]: 0.26 +/− 0.24 % of intake

Compound: OC[C@H]1O[C@@H](Oc2cc3c(O)cc(O)cc3[o+]c2-c2cc(O)c(O)c(O)c2)[C@H](O)[C@@H](O)[C@@H]1O [Delphinidin-3-glucoside]
- Total Bioaccessible Anthocyanin Amount [2]: 3.02 ± 1.83 mg
- Recovery in Ileal Efflux as a % of Intake [2, 4]: 0.87 +/− 0.78 % of intake
- Total Bioaccessibility as % of intake [2, 4]: 3.15 +/− 1.91 % of intake

Compound: OC[C@H]1O[C@@H](Oc2cc(O)cc3[o+]c(-c4cc(O)c(O)c(O)c4)c(O[C@@H]4O[C@H](CO)[C@@H](O)[C@H](O)[C@H]4O[C@@H]4OC[C@@H](O)[C@H](O)[C@H]4O)cc23)[C@H](O)[C@@H](O)[C@@H]1O [Delphinidin-3-sambubioside-5-glucoside]
- Recovery in Ileal Efflux as a % of Intake [2, 4]: 0.32+/− 0.32 % of intake

Compound: OC[C@H]1O[C@@H](Oc2cc3c(O)cc(O)cc3[o+]c2-c2ccc(O)c(O)c2)[C@H](O)[C@@H](O)[C@@H]1O [Cyanidin-3-glucoside]
- Total Bioaccessibility as % of intake [2]: 4.28 +/− 0.67 % of intake
- Recovery in ileostomy patients [3]: 1.5%

Compound: Cyanidin-3-sambubioside-5-glucoside + cyanidin3,5-diglucoside
- Total Bioaccessibility as % of intake [2]: 17.84 +/− 2.61 % of intake

Compound: OC[C@H]1O[C@@H](Oc2cc3c(O[C@@H]4O[C@H](CO)[C@@H](O)[C@H](O)[C@H]4O)cc(O)cc3[o+]c2-c2cc(O)c(O)c(O)c2)[C@H](O)[C@@H](O)[C@@H]1O [Delphinidin-3,5-diglucoside]
- Total Bioaccessible Anthocyanin Amount [2]: 1.17 ± 0.57 mg
- Recovery in Ileal Efflux as a % of Intake [2, 4]: 0.77 +/− 0.77 % of intake
- Total Bioaccessibility as % of intake [2, 4]: 3.61 +/− 1.74 % of intake
- Total Bioaccessibility as % of intake ([2]; maqui berry extract in TIM-1, over 4 h, listed as delphinidin-3,5-diglucoside): 3.6 % of intake

Source: publication PMC3310271 (Journal of agricultural and food chemistry, 2011)
